Literature values in patent US6375990B1, “Method and devices for transdermal delivery of lithium” (Emory University, priority 1997, dated 2002).

Experiments:
[1] = not given; remark: listed apart in the source
[2] = patients who do not respond to antidepressant monotherapy

final volume of distribution (Vd) (approximates total body water): 0.7 to 0.9 L/kg
time to maximal plasma Li+ concentration (Tmax) (immediate release formulations, following an oral dose): 1 to 4 h
binding to blood proteins (in vivo): does not bind to blood proteins
biotransformation / metabolic conversion (in vivo): not biotransformed
elimination through sweat, saliva, and feces (in vivo): less than 5 % of an oral dose
excretion through the kidneys (in vivo): > 90%
filtered load reabsorbed in the renal proximal tubules (in vivo): Eighty
half-life (in vivo): 18 to 36 h
absorption from the gastrointestinal tract (oral administration): readily and nearly completely absorbed
SMILES: [Li+] [Li^+, Lithium]
plasma concentration associated with life-threatening intoxication ([1]; plasma): exceeding 3.5 mEq/L
serum concentration above which adverse effects increase greatly ([1]; serum): exceed 1.5 mEq/L
antidepressant non-responders converted to responders [2]: approximately 50 % of patients
